Molecular target: pVHL:EloB:EloC (VBC) complex (Homo sapiens, UniProt P40337)
Format: binding

Chain of pVHL:EloB:EloC (VBC) complex (Q15369 17-112): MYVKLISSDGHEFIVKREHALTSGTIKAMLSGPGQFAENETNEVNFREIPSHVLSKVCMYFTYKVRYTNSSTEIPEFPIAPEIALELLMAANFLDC
Chain of pVHL:EloB:EloC (VBC) complex (P40337 54-213): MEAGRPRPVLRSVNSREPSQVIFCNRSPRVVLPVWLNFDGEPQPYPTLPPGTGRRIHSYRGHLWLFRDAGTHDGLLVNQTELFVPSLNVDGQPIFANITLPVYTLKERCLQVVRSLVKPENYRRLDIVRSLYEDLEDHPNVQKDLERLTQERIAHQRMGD
Chain of pVHL:EloB:EloC (VBC) complex (Q15370 1-104, further chain): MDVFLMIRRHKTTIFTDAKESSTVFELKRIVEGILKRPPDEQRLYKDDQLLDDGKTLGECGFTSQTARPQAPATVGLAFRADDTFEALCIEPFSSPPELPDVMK

## CC(=O)N[C@H](C(=O)N1C[C@H](O)C[C@H]1C(=O)NCc1ccc(-c2scnc2C)cc1)C(C)(C)C [ligand 7, (2S,4R)-1-((S)-2-Acetamido-3,3-dimethylbutanoyl)-4-hydroxy-N-(4-(4-methylthiazol-5-yl)benzyl)pyrrolidine-2-carboxamide]
  increase in affinity compared to 5: ~20 fold

Source: article PMC4207132 (Journal of Medicinal Chemistry, 2014)
